Among the data in patent US20100204224A1, “AZACYCLIC COMPOUNDS AS INHIBITORS OF SENSORY NEURONE SPECIFIC SODIUM CHANNELS” (priority 2005, published 2010) are IC50 values, retold here.

The target of the first assay is T1, human Nav1.8 (hNav1.8) ion channel (Homo sapiens, UniProt Q9Y5Y9).
T1 construct: expressed in transfected cells
T1 sequence (Q9Y5Y9 whole entry): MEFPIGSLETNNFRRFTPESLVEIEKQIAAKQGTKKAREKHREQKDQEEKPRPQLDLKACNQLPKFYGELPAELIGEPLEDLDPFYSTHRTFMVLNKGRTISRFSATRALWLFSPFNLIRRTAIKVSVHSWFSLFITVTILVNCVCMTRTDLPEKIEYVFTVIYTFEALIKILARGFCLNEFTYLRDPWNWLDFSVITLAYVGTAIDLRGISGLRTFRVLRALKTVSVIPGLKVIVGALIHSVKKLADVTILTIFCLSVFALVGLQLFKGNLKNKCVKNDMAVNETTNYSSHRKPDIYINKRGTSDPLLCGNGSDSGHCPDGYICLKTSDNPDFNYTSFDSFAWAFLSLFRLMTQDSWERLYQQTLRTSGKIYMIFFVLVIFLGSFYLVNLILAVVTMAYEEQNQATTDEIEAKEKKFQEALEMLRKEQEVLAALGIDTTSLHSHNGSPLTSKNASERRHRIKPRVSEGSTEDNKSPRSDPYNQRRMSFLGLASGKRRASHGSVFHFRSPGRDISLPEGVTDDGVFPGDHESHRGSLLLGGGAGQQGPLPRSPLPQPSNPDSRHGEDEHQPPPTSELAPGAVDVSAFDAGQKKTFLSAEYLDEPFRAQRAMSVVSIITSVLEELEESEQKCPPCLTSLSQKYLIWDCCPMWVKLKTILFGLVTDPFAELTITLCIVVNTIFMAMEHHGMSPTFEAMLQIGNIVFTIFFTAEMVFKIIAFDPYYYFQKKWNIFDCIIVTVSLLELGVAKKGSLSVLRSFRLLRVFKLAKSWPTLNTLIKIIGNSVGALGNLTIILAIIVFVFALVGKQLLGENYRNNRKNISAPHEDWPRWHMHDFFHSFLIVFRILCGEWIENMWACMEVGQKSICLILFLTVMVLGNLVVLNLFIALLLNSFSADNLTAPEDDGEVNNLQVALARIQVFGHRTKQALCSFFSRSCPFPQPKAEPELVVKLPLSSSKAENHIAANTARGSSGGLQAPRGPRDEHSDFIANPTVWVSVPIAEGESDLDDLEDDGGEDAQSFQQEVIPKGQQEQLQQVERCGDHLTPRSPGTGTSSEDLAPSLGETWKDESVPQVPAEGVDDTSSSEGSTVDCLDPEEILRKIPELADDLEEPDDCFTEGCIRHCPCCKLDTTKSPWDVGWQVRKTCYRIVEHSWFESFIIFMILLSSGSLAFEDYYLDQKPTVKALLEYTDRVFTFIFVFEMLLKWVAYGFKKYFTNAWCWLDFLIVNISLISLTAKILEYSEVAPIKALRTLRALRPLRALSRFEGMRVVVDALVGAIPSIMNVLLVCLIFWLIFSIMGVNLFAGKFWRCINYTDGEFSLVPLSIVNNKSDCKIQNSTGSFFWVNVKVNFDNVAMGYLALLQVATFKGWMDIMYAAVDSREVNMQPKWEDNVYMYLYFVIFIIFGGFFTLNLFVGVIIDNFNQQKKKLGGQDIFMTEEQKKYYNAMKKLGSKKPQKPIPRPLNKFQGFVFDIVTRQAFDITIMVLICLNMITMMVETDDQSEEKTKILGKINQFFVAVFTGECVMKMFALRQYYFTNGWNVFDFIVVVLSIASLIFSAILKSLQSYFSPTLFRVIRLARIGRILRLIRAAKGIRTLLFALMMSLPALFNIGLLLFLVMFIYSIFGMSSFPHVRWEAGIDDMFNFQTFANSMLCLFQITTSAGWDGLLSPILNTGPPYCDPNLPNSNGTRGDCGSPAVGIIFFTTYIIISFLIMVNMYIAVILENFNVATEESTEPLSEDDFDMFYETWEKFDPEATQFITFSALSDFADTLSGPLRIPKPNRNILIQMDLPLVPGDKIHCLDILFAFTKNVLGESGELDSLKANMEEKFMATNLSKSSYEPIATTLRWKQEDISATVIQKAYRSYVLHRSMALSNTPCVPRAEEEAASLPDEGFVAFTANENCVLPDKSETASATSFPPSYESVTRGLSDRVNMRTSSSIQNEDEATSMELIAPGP
In words: Inhibition of human Nav1.8 stably expressed in SH-SY-5Y cells (membrane potential dye fluorescence assay). Format: cell-based. As to conditions: SH-SY-5Y hNav1.8 cells; FLIPR membrane potential dye; 10 μM pyrethroid, 250 nM TTX; test concentration range 100 μM-0.05 μM; read-out: hNav1.8 IC50. The procedure:
Inhibition of Human Nav1.8 stably expressed in SH-SY-5Y Cells
A SH-SY-5Y neuroblastoma cell line stably expressing the human Nav1.8 (hNav1.8) ion channel was constructed. This cell line has been used to develop a medium to high throughput assay for determining the ability of test compounds to inhibit membrane depolarisation mediated via the hNav1.8 channel.
SH-SY-5Y hNav1.8 are grown in adherent monolayer culture using 50:50 Ham's F-12/EMEM tissue culture medium supplemented with 15% (v/v) foetal bovine serum; 2 mM L-glutamine, 1% NEAR and 600 μg·ml^−1 Geneticin sulphate. Cells are removed from the tissue culture flask using trypsin/EDTA and re-plated into black walled, clear bottom 96-well assay plates at 50,000 cells·well^−1 24 hours prior to assay.
On the day of assay the cell assay plates are washed to remove cell culture medium using a sodium free assay buffer (145 mM tetramethyl ammonium chloride; 2 mM calcium chloride; 0.8 mM magnesium chloride hexahydrate; 10 mM HEPES; 10 mM glucose; 5 mM potassium chloride, pH 7.4). Fluorescent membrane potential dye solution (FLIPR™ membrane potential dye, Molecular Devices Corporation), containing 10 μM of a pyrethroid to prevent channel inactivation and 250 nM tetrodotoxin (TTX) to reduce interference from TTX-sensitive sodium channels present in the cell line. Test compound, initially dissolved in dimethyl sulfoxide but further diluted in sodium free buffer, is added to achieve the final test concentration range of 100 μM-0.05 μM.
Cell plates are incubated for 30 minutes at room temperature to allow equilibration of dye and test compound. Plates are then transferred to a fluorescence plate reader for fluorescence measurement using an excitation wavelength of 530 nm whilst measuring fluorescence emission at 565 nm. Baseline fluorescence levels are first determined before the addition of a sodium containing buffer (220 mM sodium chloride; 2 mM calcium chloride; 0.8 mM magnesium chloride hexahydrate; 10 mM HEPES; 10 mM glucose; 5 mM potassium chloride. pH 7.4) to cause membrane depolarisation in those cells where channel block has not been effected (final sodium concentration=72.5 mM). Membrane depolarisation is registered by an increase in fluorescence emission at 565 nm.
The change in fluorescence seen in each test well upon the addition of sodium containing buffer is calculated relative to the baseline fluorescence for that well. This figure is then used for calculating the IC50 for each test compound.
Turning to `Cc1ccccc1C(C)N1CC2CC1CN2C(=O)Nc1ccc(OCCN(C)C)cc1` (stereo not drawn) [Example 21, 5-(1-o-Tolyl-ethyl)-2,5-diaza-bicyclo[2.2.1]heptane-2-carboxylic acid [4-(2-dimethylamino-ethoxy)-phenyl]-amide], the IC50 (usually the concentration that gives 50% inhibition) was 28300 nM.

For the compound `CC(Cc1ccccc1Cl)N1CC2CC1CN2C(=O)Nc1ccc(C(F)(F)F)cc1` (stereo not drawn) [Example 82, 5-[2-(2-Chloro-phenyl)-1-methyl-ethyl]-2,5-diaza-bicyclo[2.2.1]heptane-2-carboxylic acid (4-trifluoromethyl-phenyl)-amide], the concentration for half-maximal inhibition (IC50) was found to be 440 nM.

As for `CC(c1ccccc1Cl)N1CCC2(CCN(C(=O)Nc3ccc(Oc4ccc(F)cc4)cc3)C2)C1` (stereo not drawn) [Example 111, 7-[1-(2-Chloro-phenyl)-ethyl]-2,7-diaza-spiro[4.4]nonane-2-carboxylic acid [4-(4-fluoro-phenoxy)-phenyl]-amide], the IC50 is 380 nM.

For `CC(c1ccc(F)cc1)N1CC2CC1CN2C(=O)Nc1ccc(Oc2ccccc2)cc1` (stereo not drawn) [Example 51, 5-[1-(4-Fluoro-phenyl)-ethyl]-2,5-diaza-bicyclo[2.2.1]heptane-2-carboxylic acid (4-phenoxy-phenyl)-amide], the IC50 turned out to be 410 nM.

As to `CC(c1ccccc1C(F)(F)F)N1CC2CC1CN2C(=O)Nc1cccc(Oc2ccccc2)c1` (stereo not drawn) [Example 61, 5-[1-(2-Trifluoromethyl-phenyl)-ethyl]-2,5-diaza-bicyclo[2.2.1]heptane-2-carboxylic acid (3-phenoxy-phenyl)-amide], the IC50 stood at 4640 nM.

With `O=C(Nc1ccc(Oc2ccc(F)cc2)cc1)N1CC2CN(C3Cc4ccccc4C3)CC2C1` (stereo not drawn) [Example 112, 5-Indan-2-yl-hexahydro-pyrrolo[3,4-c]pyrrole-2-carboxylic acid [4-(4-fluoro-phenoxy)-phenyl]-amide], the IC50 amounted to 300 nM.

As for `Cc1ccccc1C(C)N1CC2CC1CN2C(=O)Nc1ccc(OCCN2CCCC2)cc1` (stereo not drawn) [Example 41, 5-(1-o-Tolyl-ethyl)-2,5-diaza-bicyclo[2.2.1]heptane-2-carboxylic acid [4-(2-pyrrolidin-1-yl-ethoxy)-phenyl]-amide], the half-maximal inhibitory concentration (IC50) was at least 30000 nM.

As to `Cc1ccccc1C(C)N1CC2CC1CN2C(=O)Nc1ccc(C(F)(F)F)cc1` (stereo not drawn) [Example 6, 5-(1-o-Tolyl-ethyl)-2,5-diaza-bicyclo[2.2.1]heptane-2-carboxylic acid (4-trifluoromethyl-phenyl)-amide], the IC50 turned out to be 990 nM.

As for `CC(c1ccccc1Cl)N1CC2CC1CN2C(=O)c1cc2cc(Cl)ccc2[nH]1` (stereo not drawn) [Example 150, (5-Chloro-1H-indol-2-yl)-{5-[1-(2-chloro-phenyl)-ethyl]-2,5-diaza-bicyclo[2.2.1]hept-2-yl}-methanone], the IC50 worked out at 18200 nM.

As to `O=C(Nc1ccc(Oc2ccc(F)cc2)cc1)N1CC2CC1CN2C1CCc2ccccc2C1` (stereo not drawn) [Example 97, 5-(1,2,3,4-Tetrahydro-naphthalen-2-yl)-2,5-diaza-bicyclo[2.2.1]heptane-2-carboxylic acid [4-(4-fluoro-phenoxy)-phenyl]-amide], the IC50 came to 310 nM.

Consider `Cc1ccsc1C(C)N1CC2CC1CN2C(=O)Nc1ccc(C(F)(F)F)cc1` (stereo not drawn) [Example 15, 5-[1-(3-Methyl-thiophen-2-yl)-ethyl]-2,5-diaza-bicyclo[2.2.1]heptane-2-carboxylic acid (4-trifluoromethyl-phenyl)-amide], for which the IC50 worked out at 3040 nM.

As for `Cc1ccccc1C(C)N1CC2CC1CN2C(=O)Nc1ccc(Cc2ccccc2)cc1` (stereo not drawn) [Example 34, 5-(1-o-Tolyl-ethyl)-2,5-diaza-bicyclo[2.2.1]heptane-2-carboxylic acid (4-benzyl-phenyl)-amide], the IC50 came to 640 nM.

For the compound `O=C(Nc1ccc(Oc2ccccc2)cc1)N1CC2CC1CN2C1Cc2ccccc2C1` (stereo not drawn) [Example 105, 5-Indan-2-yl-2,5-diaza-bicyclo[2.2.1]heptane-2-carboxylic acid (4-phenoxy-phenyl)-amide], the IC50 was found to be 200 nM.

Regarding `CC(c1ccccc1C(F)(F)F)N1CC2CC1CN2C(=O)Nc1cccc(C(F)(F)F)c1` (stereo not drawn) [Example 55, 5-[1-(2-Trifluoromethyl-phenyl)-ethyl]-2,5-diaza-bicyclo[2.2.1]heptane-2-carboxylic acid (3-trifluoromethyl-phenyl)-amide], the IC50 was found to be 4240 nM.

For `CCOCCOc1ccc(NC(=O)N2CC3CC2CN3C(C)c2ccccc2C)cc1` (stereo not drawn) [Example 17, 5-(1-o-Tolyl-ethyl)-2,5-diaza-bicyclo[2.2.1]heptane-2-carboxylic acid [4-(2-ethoxy-ethoxy)-phenyl]-amide], the IC50 stood at 28000 nM.

`Cc1ccsc1C(C)N1CC2CC1CN2C(=O)Nc1ccc(Oc2ccccc2)cc1` (stereo not drawn) [Example 14, 5-[1-(3-Methyl-thiophen-2-yl)-ethyl]-2,5-diaza-bicyclo[2.2.1]heptane-2-carboxylic acid (4-phenoxy-phenyl)-amide]: the IC50 amounted to 900 nM.

For `CC(c1c(F)cccc1F)N1CC2CC1CN2C(=O)Nc1ccc(Oc2ccccc2)cc1` (stereo not drawn) [Example 10, 5-[1-(2,6-Difluoro-phenyl)-ethyl]-2,5-diaza-bicyclo[2.2.1]heptane-2-carboxylic acid (4-phenoxy-phenyl)-amide], the IC50 came to 1100 nM.

`CC(c1ccccn1)N1CC2CC1CN2C(=O)c1ccc(Oc2ccc(F)cc2)cc1` (stereo not drawn) [Example 181, [4-(4-Fluoro-phenoxy)-phenyl]-[5-(1-pyridin-2-yl-ethyl)-2,5-diaza-bicyclo[2.2.1]hept-2-yl]-methanone]: the 50% inhibitory concentration (IC50) is 9930 nM.

On to `CC(c1ccccc1Cl)N1CC2CC1CN2C(=O)c1ccc(Oc2ccc(F)cc2)cc1` (stereo not drawn) [Example 152, {5-[1-(2-Chloro-phenyl)-ethyl]-2,5-diaza-bicyclo[2.2.1]hept-2-yl}-[4-(4-fluoro-phenoxy)-phenyl]-methanone], for which the IC50 is 2520 nM.

On to `CC(c1ccccc1Cl)N1CC2CC1CN2C(=O)c1ccc(Oc2ccc(F)cc2)c(F)c1` (single isomer, unassigned) [Example 176, {5-[1-(2-Chloro-phenyl)-ethyl]-2,5-diaza-bicyclo[2.2.1]hept-2-yl}-[3-fluoro-4-(4-fluoro-phenoxy)-phenyl]-methanone], for which the 50% inhibitory concentration (IC50) turned out to be 430 nM.

As to `Cc1ccsc1CN1CC2CC1CN2C(=O)Nc1ccc(Oc2ccccc2)cc1` (stereo not drawn) [Example 1, 5-(3-Methyl-thiophen-2-ylmethyl)-2,5-diaza-bicyclo[2.2.1]heptane-2-carboxylic acid (4-phenoxy-phenyl)-amide], the IC50 stood at 410 nM.

Take `O=C(Nc1ccc(Oc2ccccc2)cc1)N1CC2CN(Cc3ccccc3)CC2C1` (stereo not drawn) [Example 89, 5-Benzyl-hexahydro-pyrrolo[3,4-c]pyrrole-2-carboxylic acid (4-phenoxy-phenyl)-amide]: the IC50 worked out at 400 nM.

Turning to `C=CCOC(=O)NCCOc1ccc(NC(=O)N2CC3CC2CN3C(C)c2ccccc2C)cc1` (stereo not drawn) [Example 28, [2-(4-{[5-(1-o-Tolyl-ethyl)-2,5-diaza-bicyclo[2.2.1]heptane-2-carbonyl]-amino}-phenoxy)-ethyl]-carbamic acid allyl ester], the IC50 is 4890 nM.

Staying with this assay, now noted: hNav1.8 IC50, SH-SY-5Y hNav1.8 cells; FLIPR membrane potential dye; 10 μM pyrethroid, 250 nM TTX; test concentration range 100 μM-0.05 μM.
For the compound `CC(c1ccc(Cl)cc1Cl)N1CC2CC1CN2C(=O)Cc1ccc(Oc2ccc(F)cc2)cc1` (stereo not drawn) [Example 155, 1-{5-[1-(2,4-Dichloro-phenyl)-ethyl]-2,5-diaza-bicyclo[2.2.1]hept-2-yl}-2-[4-(4-fluoro-phenoxy)-phenyl]-ethanone], it took 18200 nM to reach half-maximal inhibition (IC50).
